Assay results: PubChem BioAssay (NCI)
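Results reflect a 48-hour exposure of cells in 96-well plates to compound at five concentrations. GI50 is the concentration that inhibits growth by half. TGI marks complete inhibition of growth.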

How the values were obtained:
Test in all cases: inhibition of tumour cell growth, NCI panel, 48 h
A549 NSCLC = system: A549 NSCLC
CAKI-1 renal = system: CAKI-1 renal
HOP-92 NSCLC = system: HOP-92 NSCLC
M14 melanoma = system: M14 melanoma
MOLT-4 leukemia = system: MOLT-4 leukemia
OVCAR-5 ovarian = system: OVCAR-5 ovarian
OVCAR-8 ovarian = system: OVCAR-8 ovarian
SNB-75 CNS = system: SNB-75 CNS
UACC-62 melanoma = system: UACC-62 melanoma
DU-145 prostate = system: DU-145 prostate

Structure (SMILES)	TGI (A549 NSCLC) [µM]	TGI (CAKI-1 renal) [µM]	TGI (HOP-92 NSCLC) [µM]	TGI (M14 melanoma) [µM]	TGI (MOLT-4 leukemia) [µM]	TGI (OVCAR-5 ovarian) [µM]	TGI (OVCAR-8 ovarian) [µM]	TGI (SNB-75 CNS) [µM]	TGI (UACC-62 melanoma) [µM]	GI50 (A549 NSCLC) [µM]	GI50 (CAKI-1 renal) [µM]	GI50 (DU-145 prostate) [µM]	TGI (DU-145 prostate) [µM]	GI50 (HOP-92 NSCLC) [µM]	GI50 (M14 melanoma) [µM]	GI50 (MOLT-4 leukemia) [µM]	GI50 (OVCAR-5 ovarian) [µM]	GI50 (OVCAR-8 ovarian) [µM]	GI50 (SNB-75 CNS) [µM]	GI50 (UACC-62 melanoma) [µM]
CC1=C2CC[C@@]3(C)C(=CCC3O)C2(C)CCC1=O (stereo not given in full)	> 100	> 100	> 100	> 100	> 100	> 100	> 100	> 100	> 100	–	–	–	–	–	–	–	–	–	–	–
CCOC(=O)c1c(-c2ccccc2)n2c(=O)cc(C)c3c(O)c(O)cc1c32	24.6	36.2	42.8	20.2	17.7	46.7	22.1	88.1	20.9	5.46	9.84	10.5	23.9	10.5	5.84	3.81	22.5	4.23	8.95	7.94
O=C(Cc1cc(O)ccc1O)NO	> 100	81.9	59.6	> 100	41	34.1	> 100	–	63.3	89.4	26.9	> 100	> 100	21.3	> 100	19.7	18.7	> 100	–	24.7
O=C(O)CN1C(=O)OC(c2ccccc2)C1=O (stereo not given)	> 100	> 100	> 100	> 100	> 100	> 100	> 100	> 100	> 100	–	–	–	> 100	–	–	–	–	–	–	–
c1cc[n+](Cc2c3ccccc3cc3c2ccc2ccccc23)cc1	27.7	–	6.97	19.7	14.7	26.8	16.1	5.36	3.93	7.31	–	6.45	20.4	1.56	5.05	3.26	11.1	3.49	1.35	1.92
OC1CC(O)O[C@H](c2ccccc2)C1 (stereo not given in full)	> 100	> 100	> 100	> 100	> 100	> 100	> 100	> 100	> 100	–	–	–	–	–	–	–	–	–	–	–
Cc1[nH]c(=O)n2c(C)nnc2c1C(=O)O	–	> 100	> 100	> 100	> 100	> 100	> 100	–	> 100	–	–	–	–	–	–	–	–	–	–	–
CC[O-].CC[O-].O=C1C=C([O-])C(=O)c2ccccc21.O=C1C=C([O-])C(=O)c2ccccc21.[Ti+4]	> 100	> 100	> 100	> 100	> 100	> 100	> 100	> 90.1	> 100	26	> 100	–	–	> 100	8.52	> 100	> 100	> 100	4.99	21.5
C[C@@H](NC1CCCC[C@@H]1O)c1ccccc1 (stereo not given in full)	> 100	> 100	> 100	> 100	> 100	> 100	> 100	> 100	> 100	–	–	–	–	–	–	–	–	–	–	–
OC1(C(Sc2ccccc2)Sc2ccccc2)CCCCCC1	89.5	74.9	56.5	49.2	> 100	–	> 100	> 100	28.5	–	–	–	–	–	–	–	–	–	–	–
Cc1ccc2ncnc(N(C)C3CCCCC3)c2c1	44.2	39	42.7	63.4	63.6	> 100	63.8	–	> 100	16.1	13.9	33.9	> 100	14.6	24.3	14.4	41.2	14.6	–	31.9
CC(=O)Oc1ccc2c(=O)c(C(C)=O)coc2c1	> 100	> 100	> 100	> 100	> 100	> 100	> 100	–	–	–	–	–	–	–	–	–	–	–	–	–
O=C1NC(c2ccc3ccccc3c2)Nc2ccccc21 (stereo not given)	–	> 100	> 100	> 100	–	–	> 100	> 100	> 100	–	–	–	> 100	–	–	–	–	–	–	–
CCN1CCN(Cc2ccc(NC(=O)Nc3nc(-c4cc(OC)c(OC)c(OC)c4)cs3)cc2C(F)(F)F)CC1	4.45	4.9	4.23	3.16	3.69	3.44	–	3.91	3.18	1.96	1.91	2.07	4.92	1.23	1.58	1.29	1.62	–	1.19	1.68
CNC(=O)/C=C/C1=CN2C(=O)c3ccc(C)c(O)c3NC(OC)C2C1 (stereo not given)	> 100	2.63	–	0.0191	> 8.39	> 31	0.192	< 0.0269	< 0.0154	–	–	–	< 0.01	–	–	–	–	–	–	–
O=C(O)C1=Cc2cccc3cccc(c23)C1=O	> 100	> 100	–	> 100	> 100	> 100	> 100	> 100	> 100	–	–	–	–	–	–	–	–	–	–	–
COC(=O)c1cc(O)ccc1O	> 100	> 100	> 100	> 100	> 100	> 100	> 100	> 100	> 100	–	–	–	–	–	–	–	–	–	–	–
CCOC(=O)C#Cc1cccc(C#CC(=O)OCC)c1	16.6	10.2	11.8	5.95	–	2.4	26	13.4	9.53	–	–	–	17.9	–	–	–	–	–	–	–
COc1cc(-c2oc3c(OC)c(O)c(OC)c(O)c3c(=O)c2OC)cc(OC)c1OC	> 100	> 100	–	> 100	> 100	> 100	> 100	60.2	> 100	–	–	–	> 100	–	–	–	–	–	–	–
